The text below walks through data of US20190135793A1, “HETEROCYCLIC INHIBITORS OF KDM5 FOR THE TREATMENT OF DISEASE” (Board of Regents, The University of Texas System, priority 2017, published 2019).

Molecules are shown by their SMILES. pIC50: −log10 of the molar value. Read-outs that look alike come from different tables or passages of the source.

For one assay, the target named is T1, KDM5B (Homo sapiens, UniProt Q9UGL1).
T1 construct: Full length of KDM5B and KDM4C protein were purchased from Active Motif; purchased Active Motif 31832
T1 sequence (Q9UGL1 whole entry): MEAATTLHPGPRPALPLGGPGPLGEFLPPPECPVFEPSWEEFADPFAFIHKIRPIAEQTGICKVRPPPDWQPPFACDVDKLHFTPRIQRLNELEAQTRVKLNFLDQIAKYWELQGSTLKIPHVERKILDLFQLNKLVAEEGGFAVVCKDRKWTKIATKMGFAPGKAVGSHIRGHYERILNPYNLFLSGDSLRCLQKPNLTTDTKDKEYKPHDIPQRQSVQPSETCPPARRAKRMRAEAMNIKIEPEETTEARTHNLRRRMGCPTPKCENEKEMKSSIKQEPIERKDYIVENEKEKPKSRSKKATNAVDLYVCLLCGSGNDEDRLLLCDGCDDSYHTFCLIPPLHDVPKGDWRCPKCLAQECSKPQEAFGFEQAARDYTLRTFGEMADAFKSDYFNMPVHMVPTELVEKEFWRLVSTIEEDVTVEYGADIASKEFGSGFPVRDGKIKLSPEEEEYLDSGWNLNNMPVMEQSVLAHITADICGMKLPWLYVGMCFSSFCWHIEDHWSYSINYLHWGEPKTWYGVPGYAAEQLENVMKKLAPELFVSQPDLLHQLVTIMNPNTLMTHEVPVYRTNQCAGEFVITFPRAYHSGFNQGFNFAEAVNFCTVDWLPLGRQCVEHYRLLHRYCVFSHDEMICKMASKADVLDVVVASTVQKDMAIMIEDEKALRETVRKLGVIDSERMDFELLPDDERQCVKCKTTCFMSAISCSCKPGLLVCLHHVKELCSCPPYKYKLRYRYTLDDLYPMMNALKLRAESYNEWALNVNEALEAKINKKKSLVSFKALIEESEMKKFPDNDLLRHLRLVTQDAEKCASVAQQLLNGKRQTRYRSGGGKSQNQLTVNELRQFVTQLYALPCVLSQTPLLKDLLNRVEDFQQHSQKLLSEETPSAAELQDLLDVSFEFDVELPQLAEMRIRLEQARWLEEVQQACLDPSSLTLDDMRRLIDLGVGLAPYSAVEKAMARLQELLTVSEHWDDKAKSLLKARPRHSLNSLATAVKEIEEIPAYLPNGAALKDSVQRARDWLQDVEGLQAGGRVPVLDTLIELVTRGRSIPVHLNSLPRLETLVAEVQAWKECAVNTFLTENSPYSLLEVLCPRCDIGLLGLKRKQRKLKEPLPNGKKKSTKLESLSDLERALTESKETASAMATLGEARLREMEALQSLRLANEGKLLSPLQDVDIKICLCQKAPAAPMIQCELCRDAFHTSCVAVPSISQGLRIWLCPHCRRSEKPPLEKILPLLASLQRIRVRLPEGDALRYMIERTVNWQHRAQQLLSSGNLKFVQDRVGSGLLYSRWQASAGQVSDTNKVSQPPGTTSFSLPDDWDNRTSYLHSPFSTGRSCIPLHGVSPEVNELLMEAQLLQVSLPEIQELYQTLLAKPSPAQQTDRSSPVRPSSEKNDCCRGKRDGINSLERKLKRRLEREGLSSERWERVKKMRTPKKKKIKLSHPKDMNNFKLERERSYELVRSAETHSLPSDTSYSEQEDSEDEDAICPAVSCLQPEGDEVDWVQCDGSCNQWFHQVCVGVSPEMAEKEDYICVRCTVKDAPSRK
Nature of the assay: biochemical. In a few lines: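 KDM5B (0.5 nM final) was preincubated with compound for 15 min at room temperature, then reacted with biotinylated peptide (3 nM final) for 25 min at room temperature.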

For a further assay, the target named is T2, KDM4C (Homo sapiens, UniProt Q9H3R0).
T2 construct: Full length of KDM5B and KDM4C protein were purchased from Active Motif; purchased Active Motif 31858
T2 sequence (Q9H3R0 1-1056): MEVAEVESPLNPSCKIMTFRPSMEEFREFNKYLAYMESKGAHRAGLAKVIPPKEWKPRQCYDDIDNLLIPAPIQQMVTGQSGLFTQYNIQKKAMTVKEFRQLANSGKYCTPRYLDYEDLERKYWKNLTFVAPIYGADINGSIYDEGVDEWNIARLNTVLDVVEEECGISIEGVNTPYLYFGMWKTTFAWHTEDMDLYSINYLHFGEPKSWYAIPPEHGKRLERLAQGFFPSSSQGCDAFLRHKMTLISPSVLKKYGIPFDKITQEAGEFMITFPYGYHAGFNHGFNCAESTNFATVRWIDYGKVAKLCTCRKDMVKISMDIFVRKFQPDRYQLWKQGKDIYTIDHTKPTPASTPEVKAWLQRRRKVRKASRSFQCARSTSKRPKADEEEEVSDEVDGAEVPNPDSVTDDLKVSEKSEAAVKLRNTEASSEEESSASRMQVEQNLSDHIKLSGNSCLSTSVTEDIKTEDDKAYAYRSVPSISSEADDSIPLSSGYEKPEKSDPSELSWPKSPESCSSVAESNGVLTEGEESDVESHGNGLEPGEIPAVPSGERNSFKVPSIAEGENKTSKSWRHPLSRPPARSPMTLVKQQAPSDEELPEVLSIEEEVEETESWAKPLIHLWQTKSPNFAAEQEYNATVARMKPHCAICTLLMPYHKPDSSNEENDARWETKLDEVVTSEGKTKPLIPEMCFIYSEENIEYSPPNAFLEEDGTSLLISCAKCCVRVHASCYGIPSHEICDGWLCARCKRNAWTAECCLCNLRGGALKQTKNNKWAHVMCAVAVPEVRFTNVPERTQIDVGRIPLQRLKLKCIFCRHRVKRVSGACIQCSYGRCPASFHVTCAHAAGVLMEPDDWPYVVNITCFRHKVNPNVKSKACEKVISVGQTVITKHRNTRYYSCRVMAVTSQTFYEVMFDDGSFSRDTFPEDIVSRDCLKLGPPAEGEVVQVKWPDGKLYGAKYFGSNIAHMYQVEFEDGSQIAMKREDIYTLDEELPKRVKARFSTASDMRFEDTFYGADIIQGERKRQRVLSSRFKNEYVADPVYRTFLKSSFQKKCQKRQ
Nature of the assay: KDM4C AlphaScreen assay. The format is biochemical. In a few lines:
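Full-length KDM4C (0.2 nM final) was preincubated 15 min at RT with compound in HEPES pH 7.4 with Tween-20, BSA and TCEP. The reaction ran 30 min at RT after adding biotinylated peptide (3 nM final) in buffer with Fe(II), α-ketoglutarate and ascorbate. EDTA-containing AlphaScreen beads stopped it; IC50 was curve-fitted.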
(Bead proximity is the source of the signal in Alpha formats.)

[1] abbreviates: AlphaScreen, full length KDM4C 0.2 nM, biotinylated H3K9Me3 peptide 3 nM, 30 minutes at room temperature.
Setting [2] is: AlphaScreen, full length KDM5B 0.5 nM, biotinylated H3K4Me3 peptide 3 nM, 25 minutes at room temperature, read-out: KDM5B (IC50).

Usually pIC50 stands for −log10 of the IC50, conventionally taken in molar units. For `COCCNC(=O)Cn1cc(-c2nc(-n3ccnc3)nc(O)c2C(C)C)cn1` [Example 118, 2-{4-[6-Hydroxy-2-(1H-imidazol-1-yl)-5-(propan-2-yl)pyrimidin-4-yl]-1H-pyrazol-1-yl}-N-(2-methoxy-ethyl)acetamide], the values for the pIC50 at KDM5B and on KDM4C (setting [1]) were 7.48 and 5.51, respectively.

Take `CC(C)c1c(O)nc(-n2ccnc2)nc1OCCN1CCNCC1` [Example 124, 2-(1H-Imidazol-1-yl)-6-[2-(piperazin-1-yl)ethoxy]-5-(propan-2-yl)pyrimidin-4-ol]: the pIC50 is 8.00 on KDM5B (setting [2]) and 5.92 on KDM4C (setting [1]).

On to `CC(C)c1c(O)nc(-n2ccnc2)nc1-c1cnn(CC(=O)O)c1` [Example 5, 2-(4-(6-Hydroxy-2-(1H-imidazol-1-yl)-5-isopropylpyrimidin-4-yl)-1H-pyrazol-1-yl)acetic acid], for which the pIC50 on KDM5B is 6.93; against KDM4C (setting [1]), 5.13.

In the case of `CC(C)c1c(O)nc(-c2cncs2)nc1-c1cnn(Cc2ccccc2)c1` [Example 20, 6-(1-Benzyl-1H-pyrazol-4-yl)-5-(propan-2-yl)-2-(1,3-thiazol-5-yl)pyrimidin-4-ol], the negative-log IC50 (pIC50) was 7.00 at KDM5B and 4.95 at KDM4C (setting [1]).

With `CC(C)c1c(O)nc(-n2ccnc2)nc1-c1cnn(CC(=O)NCCCCN(C)C)c1` [Example 93, N-[4-(Dimethylamino)butyl]-2-{4-[6-hydroxy-2-(1H-imidazol-1-yl)-5-(propan-2-yl)pyrimidin-4-yl]-1H-pyrazol-1-yl}acetamide], the negative-log IC50 (pIC50) is 8.22 against KDM5B and 6.32 on KDM4C (setting [1]).

Turning to `CC(C)c1c(O)nc(-n2ccnc2)nc1-c1ccc(C(=O)O)nc1` [Example 121, 5-[6-Hydroxy-2-(1H-imidazol-1-yl)-5-(propan-2-yl)pyrimidin-4-yl]pyridine-2-carboxylic acid], the pIC50 against KDM5B is 7.74; at KDM4C (setting [1]), 6.08.

Consider `CC(C)c1c(O)nc(-n2ccnc2)nc1C#Cc1cccnc1` [Example 10a, 2-(1H-imidazol-1-yl)-5-(propan-2-yl)-6-[2-(pyridin-3-yl)ethynyl]pyrimidin-4-ol], for which the pIC50 was 7.96 at KDM5B and 6.04 on KDM4C (setting [1]).

Regarding `Cc1nc(-c2cncs2)nc(O)c1C(C)C` [Example 155, 6-Methyl-5-(propan-2-yl)-2-(1,3-thiazol-5-yl)-pyrimidin-4-ol], the pIC50 at KDM5B was 7.19; at KDM4C (setting [1]), 5.78.

Take `CC(C)c1c(O)nc(-n2ccnc2)nc1-c1cnn(C(C)C)c1` [Example 1, 2-(1H-imidazol-1-yl)-5-isopropyl-6-(1-isopropyl-1H-pyrazol-4-yl)pyrimidin-4-ol]: the pIC50 against KDM5B was 7.92; at KDM4C (setting [1]), 5.98.

On to `CC(C)c1c(O)nc(-n2ccnc2)nc1-c1ccc(S(=O)(=O)N(C)C)cc1` [Example 61, 4-[6-Hydroxy-2-(1H-imidazol-1-yl)-5-(propan-2-yl)pyrimidin-4-yl]-N,N-dimethylbenzene-1-sulfonamide], for which the pIC50 at KDM5B (setting [2]) was 7.77; on KDM4C (setting [1]), 5.83.

Turning to `CC(C)c1c(O)nc(-n2ccnc2)nc1OCC(=O)N1CCN(C)CC1` [Example 16, 2-{[6-hydroxy-2-(1H-imidazol-1-yl)-5-(propan-2-yl)pyrimidin-4-yl]oxy}-1-(4-methylpiperazin-1-yl)ethan-1-one], the pIC50 is 7.59 on KDM5B and 5.24 at KDM4C.

Consider `CC(C)c1c(O)nc(-n2ccnc2)nc1-c1cnn(Cc2ccncc2)c1` [Example 53, 2-(1H-Imidazol-1-yl)-5-(propan-2-yl)-6-[1-(pyridin-4-ylmethyl)-1H-pyrazol-4-yl]-pyrimidin-4-ol], for which the pIC50 at KDM5B was 7.82; against KDM4C (setting [1]), 5.76.

On to `CC(C)c1c(O)nc(-n2ccnc2)nc1-c1cnn(CC(=O)NCCN2CCOCC2)c1` [Example 100, 2-{4-[6-Hydroxy-2-(1H-imidazol-1-yl)-5-(propan-2-yl)pyrimidin-4-yl]-1H-pyrazol-1-yl}-N-[2-(morpholin-4-yl)ethyl]-acetamide], for which the negative-log IC50 (pIC50) against KDM5B is 7.92; at KDM4C (setting [1]), 5.90.

Take `CC(C)c1c(O)nc(-n2ccnc2)nc1OCC1CCOCC1` [Example 139, 2-(1H-Imidazol-1-yl)-6-(oxan-4-ylmethoxy)-5-(propan-2-yl)pyrimidin-4-ol]: the pIC50 on KDM5B (setting [2]) was 7.12; at KDM4C (setting [1]), 5.43.

For the compound `CC(C)c1c(O)nc(-c2cncs2)nc1-c1cnn(C)c1` [Example 30, 5-isopropyl-6-(1-methyl-1H-pyrazol-4-yl)-2-(thiazol-5-yl)pyrimidin-4-ol], the pIC50 on KDM5B is 6.46; against KDM4C (setting [1]), 4.81.

With `CC(C)c1c(O)nc(-n2ccnc2-c2ccccn2)nc1-c1cccc(CNS(C)(=O)=O)c1` [Example 89, N-({3-[6-Hydroxy-5-(propan-2-yl)-2-[2-(pyridin-2-yl)-1H-imidazol-1-yl]pyrimidin-4-yl]phenyl}methyl)methane-sulfonamide], the pIC50 is 6.58 on KDM5B (setting [2]) and 4.70 at KDM4C (setting [1]).

`CC(C)c1c(O)nc(-n2ccnc2)nc1OCCN(C)C` [Example 137, 6-[2-(Dimethylamino)-ethoxy]-2-(1H-imidazol-1-yl)-5-(propan-2-yl)pyrimidin-4-ol]: the values for the pIC50 on KDM5B (setting [2]) and at KDM4C (setting [1]) were 7.24 and 6.01, respectively.

`CC(C)c1c(O)nc(-n2ccnc2)nc1-c1cnn(CC(=O)NCc2ccn(C)n2)c1` [Example 106, 2-{4-[6-Hydroxy-2-(1H-imidazol-1-yl)-5-(propan-2-yl)pyrimidin-4-yl]-1H-pyrazol-1-yl}-N-[(1-methyl-1H-pyrazol-3-yl)methyl]-acetamide]: the pIC50 against KDM5B is 7.74; against KDM4C (setting [1]) it was 6.06.

As to `CC(C)c1c(O)nc(-n2ccnc2)nc1OCc1cccnc1` [Example 29, 2-(1H-Imidazol-1-yl)-5-isopropyl-6-(pyridin-3-ylmethoxy)pyrimidin-4-ol], the pIC50 against KDM5B is 8.05; at KDM4C (setting [1]), 6.30.

For `CC(C)c1c(O)nc(-c2cncs2)nc1OCC(C)(C)CO` [Example 147, 6-(3-Hydroxy-2,2-dimethylpropoxy)-5-(propan-2-yl)-2-(1,3-thiazol-5-yl)-pyrimidin-4-ol], the pIC50 at KDM5B is 5.83; on KDM4C (setting [1]), 4.91.

With `CC(C)c1c(O)nc(-n2ccnc2)nc1OCc1ccccc1` [Example 134, 6-(Benzyloxy)-2-(1H-imidazol-1-yl)-5-(propan-2-yl)pyrimidin-4-ol], the pIC50 at KDM5B is 7.51; against KDM4C (setting [1]) it was 5.84.

In the case of `CC(C)c1c(O)nc(-n2ccnc2)nc1-c1cnn(CC(=O)NCCN)c1` [Example 94, N-(2-Aminoethyl)-2-{4-[6-hydroxy-2-(1H-imidazol-1-yl)-5-(propan-2-yl)pyrimidin-4-yl]-1H-pyrazol-1-yl}-acetamide], the pIC50 on KDM5B (setting [2]) is 8.22; on KDM4C (setting [1]), 6.47.

For the compound `CC(C)c1c(O)nc(-c2cncs2)nc1OCc1ccccn1` [Example 145, 5-(Propan-2-yl)-6-(pyridin-2-ylmethoxy)-2-(1,3-thiazol-5-yl)pyrimidin-4-ol], the pIC50 at KDM5B is 6.79; on KDM4C (setting [1]), 4.68.

With `CC(C)c1c(O)nc(-n2ccnc2)nc1-c1cnn(CC(=O)NCCS(C)(=O)=O)c1` [Example 107, 2-{4-[6-Hydroxy-2-(1H-imidazol-1-yl)-5-(propan-2-yl)pyrimidin-4-yl]-1H-pyrazol-1-yl}-N-(2-methane-sulfonylethyl)acetamide], the results for the pIC50 at KDM5B (setting [2]) and on KDM4C (setting [1]) were 7.72 and 5.91, respectively.

As for `CC(C)c1c(O)nc(-n2ccnc2)nc1OCCC1CCN(C)CC1` [Example 11, 2-(1H-imidazol-1-yl)-6-[2-(1-methylpiperidin-4-yl)ethoxy]-5-(propan-2-yl)pyrimidin-4-ol], the figures for the pIC50 on KDM5B and at KDM4C (setting [1]) were 8.15 and 5.92, respectively.

`CC(C)c1c(O)nc(-n2ccnc2)nc1-c1cnn(C)c1` [Example 55, 2-(1H-Imidazol-1-yl)-6-(1-methyl-1H-pyrazol-4-yl)-5-(propan-2-yl)pyrimidin-4-ol]: the results for the pIC50 against KDM5B and against KDM4C (setting [1]) were 7.82 and 5.87, respectively.
